ChEMBL document CHEMBL3137667, “[Drug-induced liver injury; fourteenth updated edition of the bibliographic database of liver injuries and related drugs]” (Gastroenterol Clin Biol, 2004)

Legend:
[1] = Highest frequency of acute liver toxicity observed during clinical trials, expressed as a percentage. [column '% AIGUE' in source]; conditions: human
[2] = human
[3] = human; remark: listed apart in the source
[4] = Proposed mechanism(s) of liver damage. [column 'MEC' in source]; conditions: human
[5] = human; remark: listed apart in the source
[6] = human; remark: listed apart in the source
[7] = human; remark: listed apart in the source
[8] = human; remark: listed apart in the source
[9] = human, serum
[10] = human; remark: listed apart in the source
[11] = Highest frequency of moderate liver toxicity observed during clinical trials, expressed as a percentage. [column '% BIOL' in source]; conditions: human
[12] = human; remark: listed apart in the source
[13] = human, serum; remark: listed apart in the source
[14] = Times to onset, minimal and maximal, observed in the indexed observations. [column 'DELAI' in source]; conditions: human
[15] = human, serum, 4383 h
[16] = Comments (NB not yet translated). [column 'COMMENTAIRES' in source]; conditions: human
[17] = Presence of at least one case with successful reintroduction. [column 'REINT' in source]; conditions: human
[18] = human; remark: listed apart in the source
[19] = human; remark: listed apart in the source
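Throughout, for Hepatotoxicity (association with vascular disease): count of indexed literature references reporting vascular liver injury in humans, e.g. peliosis hepatitis, hepatic veno-occlusive disease or Budd-Chiari syndrome.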
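Throughout, for Hepatotoxicity (benign tumour): value is a count of indexed literature references citing a benign tumour confirmed by histopathology.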
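Throughout, for Hepatotoxicity (choleostasis): human cholestatic liver injury, shown by histopathology or by peak ALT or AST elevation over alkaline phosphatase ratio below 2, value counts indexed literature reports.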
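Throughout, for Hepatotoxicity (chronic liver disease): chronic liver injury confirmed by histopathology or persistently raised serum aminotransferase activity beyond 6 months, value given as the count of indexed literature references.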
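Throughout, for Hepatotoxicity (cirrhosis): value is a count of indexed literature references reporting cirrhosis confirmed by histopathology.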
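Throughout, for Hepatotoxicity (cytolytic): human cytolytic liver injury, shown by histopathology or by a ratio above 5 of peak ALT or AST elevation to alkaline phosphatase elevation, value counts indexed references.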
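Throughout, for Hepatotoxicity (granulomatous hepatitis): value is a count of indexed literature references reporting granulomatous liver disease confirmed by histopathology.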
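Throughout, for Hepatotoxicity (malignant tumour): malignant tumour confirmed by histopathology, value gives the count of indexed literature references reporting it.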
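Throughout, for Hepatotoxicity (severe hepatitis): human clinical data: severe hepatitis, meaning potentially life-threatening liver failure or clinically observed cases, the value counts how many indexed literature references report it.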
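Throughout, for Hepatotoxicity (steatosis): steatosis confirmed by histopathology, value is the count of indexed references.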

Row | Compound | Hepatotoxicity (acute) [1] [%] | Hepatotoxicity (granulomatous hepatitis) [2] | Hepatotoxicity (steatosis) [3] | Hepatotoxicity (mechanism) [4] | Hepatotoxicity (severe hepatitis) [5] | Hepatotoxicity (choleostasis) [6] | Hepatotoxicity (cytolytic) [7] | Hepatotoxicity (cirrhosis) [8] | Hepatotoxicity (acute) [9] | Hepatotoxicity (association with vascular disease) [10] | Hepatotoxicity (moderate) [11] [%] | Hepatotoxicity (malignant tumour) [12] | Hepatotoxicity (moderate) [13] | Hepatotoxicity (time to onset) [14] | Hepatotoxicity (chronic liver disease) [15] | Hepatotoxicity (comment) [16] | Hepatotoxicity (successful reintroduction) [17] | Hepatotoxicity (animal toxicity known) [18] | Hepatotoxicity (benign tumour) [19] | Hepatotoxicity (acute) ([1]; Liver) [%] | also measured
1 | FC(F)(F)C(Cl)Br (configuration not stated) [HALOTHANE] | 0 | 2 | 1 | Allergic, Toxic Metabolite | 35 | 7 | 31 | 2 | 99 | 0 | 33 | 0 | 24 | 1 day - 3 months | 3 | AC_ANTI-MFR1/-TFA RC/METHOXYFLURANE/ENFLURANE | yes | yes | 0 |  | 
2 | CC[C@]1(O)C[C@H]2CN(CCc3c([nH]c4ccccc34)[C@@](C(=O)OC)(c3cc4c(cc3OC)N(C=O)[C@H]3[C@@](O)(C(=O)OC)[C@H](OC(C)=O)[C@]5(CC)C=CCN6CC[C@]43[C@@H]65)C2)C1 [VINCRISTINE] | 0 | 0 | 0 | Dose-dependant | 4 | 0 | 4 | 0 | 5 | 7 | 7.3 | 1 | 3 | 3 days - 20 days | 0 | I/RADIOTHERAPIE REACTIVATION_HVB | yes | yes | 0 |  | 
3 | Cn1cnc([N+](=O)[O-])c1Sc1ncnc2nc[nH]c12 [AZATHIOPRINE] |  |  | 3 |  |  |  |  | 4 | 61 | 27 |  | 6 | 40 | 2 hours - 8 years | 3 | HNR REACTIVATION_HVB CHOLANGITE MVO PELIOSE | yes | yes | 18 | 11.1 | Hepatotoxicity (granulomatous hepatitis) ([2]; Liver): 2; Hepatotoxicity (mechanism) ([4]; Liver): Allergic, Dose-dependant; Hepatotoxicity (severe hepatitis) ([5]; Liver): 5; Hepatotoxicity (choleostasis) ([6]; Liver): 34; Hepatotoxicity (cytolytic) ([7]; Liver): 19; Hepatotoxicity (moderate) ([11]; Liver): 28%
4 | CC(C)C(=O)Nc1ccc([N+](=O)[O-])c(C(F)(F)F)c1 [FLUTAMIDE] | 10 | 0 | 0 | Allergic, Reactive metabolite, Dose-dependant | 16 | 7 | 21 | 0 | 31 | 0 | 41.2 | 0 | 21 | 3 days - 10 months | 0 | AC_ANTI-N | yes | yes | 0 |  | 
5 | CN(C)CCCN1c2ccccc2Sc2ccc(Cl)cc21 [CHLORPROMAZINE] |  | 2 | 1 | Allergic, Toxic Metabolite |  | 50 | 13 | 8 | 58 | 0 |  | 0 | 9 | 1 day - 28 years | 6 | RC/PROMAZINE/THIORIDAZINE AC_ANTI-N #CBP DUCTOPENIE | yes | yes | 0 | 5.3 | Hepatotoxicity (severe hepatitis) ([5]; Liver): 4; Hepatotoxicity (moderate) ([11]; Liver): 42%
6 | O=C(O)COc1ccc(C(=O)c2cccs2)c(Cl)c1Cl |  | 0 | 1 | Allergic, Reactive metabolite |  | 8 | 18 | 4 | 18 | 0 |  | 0 | 9 | 2 weeks - 1 year | 7 | AC_ANTI-MFR2 | yes | yes | 0 | 0 | Hepatotoxicity (severe hepatitis) ([5]; Liver): 9; Hepatotoxicity (moderate) ([11]; Liver): 7%
7 | CISPLATIN | 7 | 0 | 1 | Dose-dependant | 1 | 1 | 2 | 0 | 3 | 2 | 93 | 0 | 23 | 1 day - 2 weeks | 0 | CHOLANGITE/IAH | yes | yes | 0 |  | 
8 | NC(=O)c1cnccn1 [PYRAZINAMIDE] | 31.8 | 1 | 0 | Allergic, Dose-dependant | 19 | 8 | 28 | 0 | 51 | 0 | 36.4 | 0 | 21 | 2 hours - 1.2 years | 1 | I/OFLOXACINE AC_ANTI-N | yes | yes | 0 |  | 
